Data as given in US4292319A, “Antiphlogistic pharmaceutical compositions and method of use” (Boehringer Ingelheim GmbH, priority 1977, dated 1981).
Counter-ions that a name gives are not always drawn. Like-named read-outs stand apart in the source and are kept apart here.

What was measured:
[1] = Test for ulcerogenic effect on the stomach of the rat; assay type: in vivo, rat (Chbb:THOM); details: in vivo, po
Procedure: (§1) (1) Test for ulcerogenic effect on the stomach of the rat
(§2) The test was carried out on male and female (1:1) Chbb:THOM-rats with a body weight between 130 to 150 gm at the beginning of the study.
(§3) The test substances (non-steroidal anti-phlogistics or mixtures of these antiphlogistics with pirenzepine dihydrochloride) were administered as triturations in 1% tylose (1 ml/100 gm animal) by way of an esophageal tube once a day on three successive days.
(§4) Four hours after the last administration (i.e. on the 3rd day) the animals were killed by an over-dose of ether. The stomachs wer dissected, cut along the great curvature and washed under flowing water for subsequent macroscopic evaluation.

[2] = test system: stomach of the rat; experiment: as above; assay type: in vivo, rat (Chbb:THOM); details: oral, 3 subsequent days
Procedure: as §1, §2, §3, §4

[3] = test system: carrageenin-induced edema of the hind paw of the rat; experiment: Test for antiphlogistic effect against the carrageenin-induced edema of the hind paw of the rat; assay type: in vivo; details: rat; for ED35: Rattus norvegicus, po, 3 h, carrageenin edema; for Thickness of the paw (mean): 3 h after carrageenin
Procedure: The test was carried out in analogy to the above test for the kaolin-induced edema. However, the edema was induced according to the method of WINTER et al. [J. Pharmacol. 141, 369 (1963)] by subplantary injection of 0.05 ml of a 1% solution of carrageenin in an aqueous 0.85% solution of sodium chloride. […] Three hours after the provocation of the edema the measurement which provided the basis for the evaluation of an anti-exudative effect was carried out.
(§5) From the swelling values obtained by administration of different dosages of non-steroidal antiphlogistics with or without the addition of pirenzepine dihydrochloride, using a linear regression analysis according to LINDNER [Statistische Methoden, 4th Ed., pages 148-162, Birkhauser, Basel, Switzerland (1964)], the ED35 values of the antiphlogistics were calculated with the confidence limits according to FIELLER [Quart. J. Pharm. Pharmacol. 17, 117 (1944)], the ED35 being the dosage which reduces the swelling of the paws by 35% in comparison to the control animals.

[4] = test system: kaolin-induced edema of the rat's hind paw; experiment: Test for antiphlogistic effect against the kaolin-induced edema of the rat's hind paw; assay type: in vivo, rat (Chbb:THOM); details: oral, rat; for ED35: Rattus norvegicus, po, 5 h, kaolin edema, read-out: ED35; for Thickness of the paw (mean): 5 h after kaolin
Procedure: (2) Test for antiphlogistic effect against the kaolin-induced edema of the rat's hind paw (tested substances: A, B, C and D)
The test was carried out on male Chbb:THOM-rats with a body weight between 125 and 150 gm. According to HILLEBRECHT [Arzneimittel-Forsch. 4, 607 (1954)], a subplantary injection of 0.05 ml of a 10% suspension of kaolin in an aqueous 0.85% sodium chloride solution in the hind paw was used for the provocation of the kaolin edema. The other hind paw was subplantarily injected with the same volume of an aqueous 0.85% sodium chloride solution.
The measurement of the thickness of the paws was carried out using the technique of DOEPFNER and […] [Int. Arch. Allergy appl. Immunol. 12, 89 (1958)] by way of the determination of the maximum sagittal diameter, using a measuring device with constant pressure, before and 5 hours after the provocation of the edema.
The test substances (the non-steroidal antiphlogistics or the mixture of non-steroidal antiphlogistics with pirenzepine dihydrochloride) were administered 30 minutes before provocation of the edema as a trituration in 1% tylose (1 ml/[…]) by way of an esophageal tube.
The diameter of the paw measured before the beginning of the test as well as the increase in diameter of the other paw caused by injection were subtracted from the diameter of the kaolin-treated paw, and this difference, being the real swelling value, was used for the further calculations.
as §5

[5] = antiphlogistic 12.5 mgm/kg, without A
[6] = antiphlogistic 25 mgm/kg + A 100 mgm/kg
[7] = antiphlogistic 25 mgm/kg, without A
[8] = antiphlogistic 50 mgm/kg + A 100 mgm/kg
[9] = antiphlogistic 50 mgm/kg, without A
[10] = antiphlogistic 100 mgm/kg, without A

Structure (SMILES): CC(C)Cc1ccc(C(C)C(=O)O)cc1 (centres unmarked) [H, 2-(4-isobutylphenyl)-propionic acid]
- TD50 ([1]; ED50-ulcer): 31 mg/kg
- Ratio of animals with ulcers [2, 5]: 0/20
- Ratio of animals with ulcers [2, 6]: 6/20
- Ratio of animals with ulcers ([2]; antiphlogistic 25 mgm/kg + A 400 mgm/kg): 1/20
- Ratio of animals with ulcers [2, 7]: 8/20
- Ratio of animals with ulcers [2, 8]: 11/20
- Ratio of animals with ulcers ([2]; antiphlogistic 50 mgm/kg + A 400 mgm/kg): 11/20
- Ratio of animals with ulcers [2, 9]: 15/20
- Ratio of animals with ulcers ([2]; antiphlogistic 100 mgm/kg + A 100 mgm/kg): 18/20
- Ratio of animals with ulcers ([2]; antiphlogistic 100 mgm/kg + A 400 mgm/kg): 16/20
- Ratio of animals with ulcers [2, 10]: 19/20
- Ratio of animals with ulcers ([2]; antiphlogistic 200 mgm/kg + A 100 mgm/kg): 20/20
- Ratio of animals with ulcers ([2]; antiphlogistic 200 mgm/kg + A 400 mgm/kg): 19/20
- Ratio of animals with ulcers ([2]; antiphlogistic 200 mgm/kg, without A): 20/20
- ED35 ([3]; with A 400 mgm/kg): 34.2 mg/kg
- ED35 ([3]; without A): 39.6 mg/kg
- Thickness of the paw (mean) ([3]; antiphlogistic 20 mgm/kg + A 400 mgm/kg, oral): 204.0 10^-2 mm
- Thickness of the paw (mean) ([3]; antiphlogistic 20 mgm/kg, without A, oral): 210.0 10^-2 mm
- Thickness of the paw (mean) ([3]; antiphlogistic 40 mgm/kg + A 400 mgm/kg, oral): 170.0 10^-2 mm
- Thickness of the paw (mean) ([3]; antiphlogistic 40 mgm/kg, without A, oral): 167.0 10^-2 mm
- Thickness of the paw (mean) ([3]; antiphlogistic 80 mgm/kg + A 400 mgm/kg, oral): 131.7 10^-2 mm
- Thickness of the paw (mean) ([3]; antiphlogistic 80 mgm/kg, without A, oral): 141.5 10^-2 mm

Structure (SMILES): O=C(O)C=CC(O)c1ccc(-c2ccccc2F)cc1 (centres unmarked) [C, 4-[4-(2'-fluoro-biphenylyl)]-4-hydroxy-crotonic acid morpholine salt]
- Ratio of animals with ulcers ([2]; antiphlogistic 52 mgm/kg, without A): 5/12
- Ratio of animals with ulcers ([2]; antiphlogistic 62 mgm/kg + A 50 mgm/kg): 4/15
- Ratio of animals with ulcers ([2]; antiphlogistic 62 mgm/kg, without A): 8/12
- Ratio of animals with ulcers ([2]; antiphlogistic 74 mgm/kg + A 50 mgm/kg): 8/17
- Ratio of animals with ulcers ([2]; antiphlogistic 74 mgm/kg + A 100 mgm/kg): 0/15
- Ratio of animals with ulcers ([2]; antiphlogistic 74 mgm/kg, without A): 10/12
- Ratio of animals with ulcers ([2]; antiphlogistic 88 mgm/kg + A 50 mgm/kg): 9/17
- Ratio of animals with ulcers ([2]; antiphlogistic 88 mgm/kg + A 100 mgm/kg): 4/15
- Ratio of animals with ulcers ([2]; antiphlogistic 106 mgm/kg + A 50 mgm/kg): 11/17
- Ratio of animals with ulcers ([2]; antiphlogistic 106 mgm/kg + A 100 mgm/kg): 3/15
- Ratio of animals with ulcers ([2]; antiphlogistic 127 mgm/kg + A 100 mgm/kg): 7/15
- Ratio of animals with ulcers ([2]; antiphlogistic 153 mgm/kg + A 100 mgm/kg): 8/15
- ED35 ([4]; with A 100 mgm/kg): 17.6 mg/kg
- ED35 ([4]; without A): 15.3 mg/kg
- Thickness of the paw (mean) ([4]; antiphlogistic 6.25 mgm/kg + A 100 mgm/kg): 215.6 10^-2 mm
- Thickness of the paw (mean) ([4]; antiphlogistic 6.25 mgm/kg, without A): 203.9 10^-2 mm
- Thickness of the paw (mean) ([4]; antiphlogistic 12.25 mgm/kg + A 100 mgm/kg): 187.0 10^-2 mm
- Thickness of the paw (mean) [4, 5]: 179.5 10^-2 mm
- Thickness of the paw (mean) [4, 6]: 166.0 10^-2 mm
- Thickness of the paw (mean) [4, 7]: 164.3 10^-2 mm
- Thickness of the paw (mean) [4, 8]: 149.3 10^-2 mm
- Thickness of the paw (mean) [4, 9]: 138.0 10^-2 mm
- Thickness of the paw (mean) [4, 10]: 93.8 10^-2 mm

Structure (SMILES): COc1ccc2cc([C@H](C)C(=O)O)ccc2c1 [F, d-2-(6-methoxy-2-naphthyl)-propionic acid]
- ED35 ([3]; with A 400 mgm/kg, oral, read-out: ED35): 3 mg/kg
- ED35 ([3]; without A, oral, read-out: ED35): 2.8 mg/kg
- Thickness of the paw (mean) ([3]; antiphlogistic 2 mgm/kg + A 400 mgm/kg, oral): 192.2 10^-2 mm
- Thickness of the paw (mean) ([3]; antiphlogistic 2 mgm/kg, without A, oral): 188.5 10^-2 mm
- Thickness of the paw (mean) ([3]; antiphlogistic 4 mgm/kg + A 400 mgm/kg, oral): 168.5 10^-2 mm
- Thickness of the paw (mean) ([3]; antiphlogistic 4 mgm/kg, without A, oral): 157.5 10^-2 mm
- Thickness of the paw (mean) ([3]; antiphlogistic 8 mgm/kg + A 400 mgm/kg, oral): 133.3 10^-2 mm
- Thickness of the paw (mean) ([3]; antiphlogistic 8 mgm/kg, without A, oral): 118.0 10^-2 mm

Structure (SMILES): O=C([O-])Cc1ccccc1Nc1c(Cl)cccc1Cl.[Na+] [E, sodium [o-(2,6-dichloro-anilino)-phenyl]acetate]
- TD50 ([1]; with A 200 mgm/kg, oral, 3 subsequent days, read-out: ED50-ulcer): 4.05 mg/kg
- TD50 ([1]; with A 400 mgm/kg, oral, 3 subsequent days, read-out: ED50-ulcer): 5.63 mg/kg
- TD50 ([1]; without A, oral, 3 subsequent days, read-out: ED50-ulcer): 2.95 mg/kg
- Ratio of animals with ulcers ([2]; antiphlogistic 2 mgm/kg + A 200 mgm/kg): 3/20
- Ratio of animals with ulcers ([2]; antiphlogistic 2 mgm/kg + A 400 mgm/kg): 1/20
- Ratio of animals with ulcers ([2]; antiphlogistic 2 mgm/kg, without A): 5/20
- Ratio of animals with ulcers ([2]; antiphlogistic 4 mgm/kg + A 200 mgm/kg): 9/20
- Ratio of animals with ulcers ([2]; antiphlogistic 4 mgm/kg + A 400 mgm/kg): 7/20
- Ratio of animals with ulcers ([2]; antiphlogistic 4 mgm/kg, without A): 14/20
- Ratio of animals with ulcers ([2]; antiphlogistic 8 mgm/kg + A 200 mgm/kg): 17/19
- Ratio of animals with ulcers ([2]; antiphlogistic 8 mgm/kg + A 400 mgm/kg): 13/20
- Ratio of animals with ulcers ([2]; antiphlogistic 8 mgm/kg, without A): 19/20
- Ratio of animals with ulcers ([2]; antiphlogistic 16 mgm/kg + A 200 mgm/kg): 20/20
- Ratio of animals with ulcers ([2]; antiphlogistic 16 mgm/kg + A 400 mgm/kg): 19/20
- ED35 ([3]; with A 400 mgm/kg): 4.3 mg/kg
- ED35 ([3]; without A): 5 mg/kg
- Thickness of the paw (mean) ([3]; antiphlogistic 1.5 mgm/kg + A 400 mgm/kg, oral): 209.5 10^-2 mm
- Thickness of the paw (mean) ([3]; antiphlogistic 1.5 mgm/kg, without A, oral): 209.5 10^-2 mm
- Thickness of the paw (mean) ([3]; antiphlogistic 3.0 mgm/kg + A 400 mgm/kg, oral): 181.5 10^-2 mm
- Thickness of the paw (mean) ([3]; antiphlogistic 3 mgm/kg, without A, oral): 188.5 10^-2 mm
- Thickness of the paw (mean) ([3]; antiphlogistic 6.0 mgm/kg + A 400 mgm/kg, oral): 162.5 10^-2 mm
- Thickness of the paw (mean) ([3]; antiphlogistic 6 mgm/kg, without A, oral): 170.0 10^-2 mm
- Thickness of the paw (mean) ([3]; antiphlogistic 12.0 mgm/kg + A 400 mgm/kg, oral): 148.5 10^-2 mm
- Thickness of the paw (mean) ([3]; antiphlogistic 12 mgm/kg, without A, oral): 154.0 10^-2 mm
